Consider 15 compounds from publication PMC12297039, “Design, Synthesis, and Evaluation of Cytotoxic Effects of Functional Fatty Acid Derivatives as Potential Antineoplastic Agents for Breast Cancer” (Iranian Journal of Pharmaceutical Research : IJPR, 2025).

Assay [1] relates to MCF-7 cells. Description: MTT cytotoxicity assay on breast adenocarcinoma (MCF-7) cells. Format: cell-based, human. Conditions: for EC50: read-out: MCF-7 EC50 (μM) ± SE; for Selectivity Index (SI), MCF-7: ratio of EC50 against fibroblasts to EC50 against MCF-7 cells. The method, then:
(§1) The cytotoxic effects of DHA and LA derivatives against the breast cancer cell line (MCF-7) were assessed, with results compared to human dermal fibroblasts (HDFs) as a normal cell line. Both cell lines were provided by the Pasteur Institute of Iran (IPI). The cells were cultured in RPMI medium containing 10% fetal bovine serum (FBS) and 1% antibiotic solution (comprising 10,000 units of penicillin and 10 mg streptomycin in 0.9% NaCl). The cultures were incubated at 37°C with 5% CO2.
(§2) The MTT assay was used as a standard method for evaluating the inhibitory effect of compounds. This colorimetric assay is based on the conversion of yellow MTT (3-[4,5-dimethylthiazol-2-yl]-2,5-diphenyltetrazolium bromide) to purple formazan crystals via enzymatic reduction by NAD(P)H-dependent oxidoreductase enzymes in metabolically active cells ([35]). According to a previously reported method, after 24 hours of incubation of cells (15,000 cells per well), six different concentrations of D1-D8 (6.25 to 200 μM) and L1-L8 (3.125 to 100 μM) were added to the wells, with each concentration performed in triplicate. After 48 hours of incubation, the culture medium was completely removed from the wells. MTT solution, prepared at a concentration of 0.5 mg/mL in phosphate-buffered saline (PBS), was added (100 µL per well) and incubated for 4 hours to allow metabolically active cells to reduce the MTT to insoluble formazan crystals. Subsequently, 100 µL of solubilizing solvent containing 16% sodium dodecyl sulfate (SDS) was added to each well, followed by an additional 2 hours of incubation ([36]). Cell viability was determined using a Cell Imaging Multi-Mode Microplate Reader (Biotek, Cytation 3, USA), measuring absorbance at 570 nm ([37], [38]).
Background: Formazan colour is commonly taken as a measure of viable cells.

For assay [2], the system named is human dermal fibroblasts (HDFs). Description: MTT cytotoxicity assay on normal human dermal fibroblasts (HDFs). Format: cell-based. The settings on record: read-out: HDF EC50 (μM) ± SE. The method, then:
as §1, §2

For assay [3], the system named is MCF-7 cells. The experiment in a line: Annexin V-FITC/PI flow cytometry, apoptosis and necrosis. Format: cell-based, human. Conditions: MCF-7, annexin V-FITC/PI staining, ½x, x, 2x EC50. The method, then: Apoptosis and necrosis were measured using a dead cell apoptosis kit with annexin V-FITC and propidium iodide (PI) (ApoFlowExFITC, Exbio, Czech Republic) according to the manufacturer’s protocol. The MCF-7 cells were cultured as described in the cell culture section (section 3.3.1). […] Cells were collected through trypsinization, rinsed twice with PBS, and then resuspended in 500 μL of binding buffer. The cell suspensions were subsequently incubated with 5 μL of annexin V-FITC and 5 μL of PI for 10 minutes at room temperature in a dark environment. The cells were then assessed immediately using flow cytometry, and the data were analyzed using FlowJo version 7.6.5 (Tree Star, Inc., Ashland, USA).
A distinguishing characteristic of cells undergoing apoptosis is the translocation of phosphatidylserine from the inner to the outer layers of the plasma membrane, which can be identified by annexin V in this assay. The PI identifies necrotic cells with compromised plasma membranes ([39]-[44]).

In another assay the test system is MCF-7 breast cancer cell. Further details: method as in PMID 31652764. The settings on record: MCF-7, MTT assay, 150 μM DHA; cited from earlier work.
[4] abbreviates: Homo sapiens, MCF7, MTT, 48 h incubation, MCF-7.
Setting [5] is: Fibroblast, MTT, 48 h incubation, normal human dermal fibroblasts.

Where two headings read alike, the source gives them in different places.

One may read the EC50 as the concentration needed to bring the measured effect to its halfway point. Turning to “4-((4Z,7Z,10Z,13Z,16Z,19Z)-docosa-4,7,10,13,16,19-hexaen-1-yl)morpholine [Compound D3]”, the EC50 with MCF-7 cells [1] (MTT, 48 h incubation, MCF-7) was 16 ± 2.89 µM; in assay [2] (MTT, 48 h incubation, normal human dermal fibroblasts), above 100 µM. For the same compound, the “mode of cell death” value in the assay with MCF-7 cells [3] is “predominantly induced apoptosis rather than necrosis”.
In the case of `CC/C=C\C/C=C\C/C=C\C/C=C\C/C=C\C/C=C\CCC(=O)NCCO` [Compound D1, (4Z,7Z,10Z,13Z,16Z,19Z)-N-(2-hydroxyethyl) docosa-4,7,10,13,16,19-hexaenamide], the EC50 with MCF-7 cells [1] (Homo sapiens, MCF7, 48 h) was at least 100 µM; in assay [2] (Homo sapiens, Fibroblast, 48 h), at least 100 µM.
As to `CC/C=C\C/C=C\C/C=C\C/C=C\C/C=C\C/C=C\CCC(=O)N(CCO)CCO` [Compound D2, (4Z,7Z,10Z,13Z,16Z,19Z)-N,N-bis(2-hydroxyethyl)docosa-4,7,10,13,16,19-hexaenamide], the EC50 in the assay on MCF-7 cells [1] (setting [4]) was at least 100 µM; in assay [2] (setting [5]), above 100 µM.
Turning to `CC/C=C\C/C=C\C/C=C\C/C=C\C/C=C\C/C=C\CCC(=O)Nc1ccc(O)cc1` [Compound D4, (4Z,7Z,10Z,13Z,16Z,19Z)-N-(4-hydroxyphenyl)docosa-4,7,10,13,16,19-hexaenamide], the EC50 with MCF-7 cells [1] (setting [4]) is 74.3 ± 1.41 µM; in assay [2] (setting [5]) it was above 100 µM.
Turning to `CC/C=C\C/C=C\C/C=C\C/C=C\C/C=C\C/C=C\CCC(=O)NCCc1ccccc1` [Compound D5, (4Z,7Z,10Z,13Z,16Z,19Z)-N-phenethyldocosa-4,7,10,13,16,19-hexaenamide], the EC50 in the assay with MCF-7 cells [1] (setting [4]) is at least 100 µM.
For `CC/C=C\C/C=C\C/C=C\C/C=C\C/C=C\C/C=C\CCC(=O)N1CCN(C)CC1` [Compound D6, (4Z,7Z,10Z,13Z,16Z,19Z)-1-(4-methylpiperazin-1-yl) docosa-4,7,10,13,16,19-hexaen-1-one], the EC50 with MCF-7 cells [1] (setting [4]) was at least 100 µM.
In the case of `CC/C=C\C/C=C\C/C=C\C/C=C\C/C=C\C/C=C\CCC(=O)NCC(O)CO` (stereo not shown) [Compound D7, (4Z,7Z,10Z,13Z,16Z,19Z)-N-(2,3-dihydroxypropyl) docosa-4,7,10,13,16,19-hexaenamide], the EC50 with MCF-7 cells [1] (setting [4]) is 98.6 ± 1.19 µM; in assay [2] (setting [5]), above 100 µM.
Turning to `CC/C=C\C/C=C\C/C=C\C/C=C\C/C=C\C/C=C\CCC(=O)NCCN` [Compound D8, (4Z,7Z,10Z,13Z,16Z,19Z)-N-(2-aminoethyl) docosa-4,7,10,13,16,19-hexaenamide], the EC50 in the assay with MCF-7 cells [1] (setting [4]) was 86 ± 5.41 µM; in assay [2] (setting [5]), above 100 µM.
As to `CCCCC/C=C\C/C=C\CCCCCCCC(=O)NCCO` [Compound L1, (9Z,12Z)-N-(2-hydroxyethyl) octadeca-9,12-dienamide], in the assay with MCF-7 cells [1] (setting [4]), the EC50 was at least 100 µM.
With `CCCCC/C=C\C/C=C\CCCCCCCC(=O)N(CCO)CCO` [Compound L2, (9Z,12Z)-N,N-bis(2-hydroxyethyl) octadeca-9,12-dienamide], the EC50 with MCF-7 cells [1] (setting [4]) was at least 100 µM.
As to `CCCCC/C=C\C/C=C\CCCCCCCC(=O)N1CCOCC1` [Compound L3, (9Z,12Z)-1-morpholinooctadeca-9,12-dien-1-one], the values for the EC50 (in the assay with MCF-7 cells [1] (setting [4]); in assay [2] (setting [5])) were 24.6 ± 1.81 µM and at least 100 µM, respectively. Also, the “Selectivity Index (SI), MCF-7” value in the assay with MCF-7 cells [1] is 6.88. In addition, the “mode of cell death” value with MCF-7 cells [3] is “predominantly induced apoptosis rather than necrosis”.
`CCCCC/C=C\C/C=C\CCCCCCCC(=O)Nc1ccc(O)cc1` [Compound L4, (9Z,12Z)-N-(4-hydroxyphenyl) octadeca-9,12-dienamide]: the EC50 in the assay on MCF-7 cells [1] (setting [4]) is 52.4 ± 6.79 µM; in assay [2] (setting [5]) it was at least 100 µM. Besides, the “Selectivity Index (SI), MCF-7” value in the assay on MCF-7 cells [1] is given as 3.53.
In the case of `CCCCC/C=C\C/C=C\CCCCCCCC(=O)NCC(O)CO` (stereo not shown) [Compound L7, (9Z,12Z)-N-(2,3-dihydroxypropyl) octadeca-9,12-dienamide], the EC50 in the assay with MCF-7 cells [1] (setting [4]) was 19.2 ± 2.93 µM; in assay [2] (setting [5]) it was 64.8 ± 5.72 µM. The “Selectivity Index (SI), MCF-7” value in the assay with MCF-7 cells [1] was 3.37. Moreover, in the assay on MCF-7 cells [3], the “mode of cell death” value is on record as “predominantly induced apoptosis rather than necrosis”.
`CC/C=C\C/C=C\C/C=C\C/C=C\C/C=C\C/C=C\CCC(=O)O` [DHA, docosahexaenoic acid]: the cell viability entry in the assay on MCF-7 breast cancer cell is given as “significantly reduced”.
Take `N.N.[Cl][Pt][Cl]` [cisplatin, reference compound]: in the assay on MCF-7 cells [1] (MTT, 48 h incubation, MCF-7), the EC50 was 0.85 µM. The “Selectivity Index (SI), MCF-7” value with MCF-7 cells [1] is on record as 1.18.
